Experimental data from patent publication US20240373891A1, “SWEETENER BLEND COMPRISING THAUMATIN AND MOGROSIDES” (NOMAD BIOSCIENCE GMBH, priority 2021, published 2024).

B1: Thaumatin II: protein of SEQ ID NO: 2, purity greater than 90%, recombinantly expressed in plants (protein, listed as Thaumatococcus daniellii)
chain: ATFEIVNRCSYTVWAAASKGDAALDAGGRQLNSGESWTINVEPGTKGGKIWARTDCYFDDSGRGICRTGDCGGLLQCKRFGRPPTTLAEFSLNQYGKDYIDISNIKGFNVPMDFSPTTRGCRGVRCAADIVGQCPAKLKAPGGGCNDACTVFQTSEYCCTTGKCGPTEYSRFFKRLCPDAFSYVLDKPTTVTCPGSSNYRVTFCPTA

Tests used:
[1] = Round table qualitative assessment of quality of sweetness and undesirable attributes, scale 1-10; type: in vivo; conditions: for Off taste (lower better) / Quality of sweetness (higher better): scale of 1-10, 6 panelists; for Quality of sweetness (higher better): 5% sucrose control
Protocol: • Round table evaluations were performed with 6 test panelists. Equal sweet 5 SEV concentrations in neutral pH water were made for Thaumatin II (purity greater than 90%), Mogroside V, and Siamenoside I. These equal sweet solutions were also mixed at 50% of Thaumatin II and 50% Mogroside V or Siamenoside I and compared to the individual components. All solutions were coded and blinded from panelists. Panelists were asked to provide a qualitative assessment on a scale of 1-10 of the quality of sweetness (10 being the highest quality of sweetness) and undesirable attributes (10 being most undesirable) of each solution using a 5% sucrose solution as a control.

[2] = Round table evaluation of sweetness intensity (SEV) against sucrose reference samples; type: in vivo; conditions: mean of test panelists
Protocol: • Round table evaluations were performed with test panelists. Equal sweet 5 SEV concentrations in neutral pH water were made for Thaumatin II (purity greater than 90%), Mogroside V, and Siamenoside I. These equal sweet solutions were also mixed at 50% of Thaumatin II and 50% Mogroside V or Siamenoside I and compared to the individual components. The components of the test compositions are described in the below tables. The mixed compositions were calculated using the Beidler mixture equation for the sweeteners. The Beidler mixture equation for sweeteners is as follows: […]
The concentration of each component in the mixture in ppm is divided by SEV (c/R) and is plotted against concentration, c. The […]. The y-intercept of the linear regression multiplied by Rmaxis the half-maximal sweetness concentration, 1/K. Rmax and 1/K are the two parameters used in the Beidler equation. Mixtures were tasted in comparison to reference samples for the panelists to determine SEV values. References samples were 3%, 4%, 5%, 6%, 7%, and 8% sucrose in neutral pH water. The test samples were served in 2 ounce soufflé cups (approximately 60 ml) coded with 3-digit codes at room temperature. A two minute wait period between samples was enforced. Water and unsalted crackers was available for the panelists to clear their palates before and during testing. Results were collected for calculating approximate SEV level of each test sample. • The test products analyzed in this experiment are described below in Table 1.

[3] = summary of Example 2, compared with sucrose

| Molecule | Off taste (lower better) ([1]; 250 ppm in neutral pH water) | Quality of sweetness (higher better) ([1]; 250 ppm in neutral pH water) | Sweetness quality and off taste, in words ([1]; summary of Example 2) | Sweetness onset, in words [1, 3] | Sweetness intensity determined, SEV ([2]; 250 ppm in neutral pH water) [SEV] | Off taste (lower better) ([1]; 7 ppm in neutral pH water) | Quality of sweetness (higher better) ([1]; 7 ppm in neutral pH water) | Sweet aftertaste, in words [1, 3] | Sweetness intensity determined, SEV ([2]; 7 ppm in neutral pH water) [SEV] |
| --- | --- | --- | --- | --- | --- | --- | --- | --- | --- |
| C[C@H](CC[C@@H](O[C@@H]1O[C@H](CO[C@@H]2O[C@H](CO)[C@@H](O)[C@H](O)[C@H]2O)[C@@H](O)[C@H](O)[C@H]1O[C@@H]1O[C@H](CO)[C@@H](O)[C@H](O)[C@H]1O)C(C)(C)O)[C@H]1CC[C@@]2(C)[C@@H]3CC=C4[C@@H](CC[C@H](O[C@@H]5O[C@H](CO[C@@H]6O[C@H](CO)[C@@H](O)[C@H](O)[C@H]6O)[C@@H](O)[C@H](O)[C@H]5O)C4(C)C)[C@]3(C)[C@H](O)C[C@]12C [Mogroside V] | 3.3 | 7.5 | very mild off notes were detected | rapid | 5.3 | – | – | – | – |
| C[C@H](CC[C@@H](O[C@@H]1O[C@H](CO[C@@H]2O[C@H](CO)[C@@H](O)[C@H](O)[C@H]2O)[C@@H](O)[C@H](O)[C@H]1O[C@@H]1O[C@H](CO)[C@@H](O)[C@H](O)[C@H]1O)C(C)(C)O)[C@H]1CC[C@@]2(C)[C@@H]3CC=C4[C@@H](CC[C@H](O[C@@H]5O[C@H](CO)[C@@H](O)[C@H](O)[C@H]5O)C4(C)C)[C@]3(C)[C@H](O)C[C@]12C [Siamenoside I] | 2.6 | 7.8 | very mild off notes were detected | rapid | 6.0 | – | – | – | – |
| B1 | – | – | clean sweetness without any off taste | slightly delayed | – | 4.9 | 5.3 | lasted longer | 4.8 |
